Laboratory results published in patent US10196363B2, “Dihydropyrimidin-2-one compounds and medical use thereof” (JAPAN TOBACCO INC., priority 2014, dated 2019).
Where two headings read alike, the source gives them in different places.

Key:
mouse RORγ = target: T1, mouse RORγ (Mus musculus, UniProt P51450); assay: In vitro assay of inhibitory effect against RORγ transcriptional activity (GAL4-mRORγ LBD luciferase reporter gene assay in CHO cells); type: cell-based; details: for mRORγ luciferase activity, %-of-control: vehicle-control 0.2% DMSO alone = 100%
T1 construct: mouse RORγ, from Ile251 to Lys516; expressed in transfected cells; host or cells: CHO cells (Chinese hamster ovary), transient co-transfection with pG5-Luc
T1 sequence (P51450 251-516): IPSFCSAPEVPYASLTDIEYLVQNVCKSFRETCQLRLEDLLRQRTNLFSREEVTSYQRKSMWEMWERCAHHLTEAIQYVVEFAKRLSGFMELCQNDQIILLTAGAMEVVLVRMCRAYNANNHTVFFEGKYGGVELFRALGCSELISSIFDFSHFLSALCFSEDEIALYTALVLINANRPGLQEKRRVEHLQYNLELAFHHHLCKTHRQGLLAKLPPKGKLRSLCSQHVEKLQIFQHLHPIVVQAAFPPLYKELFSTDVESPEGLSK
Method: (§1) In Vitro Assay of Inhibitory Effect Against RORγ Transcriptional Activity
(§2) Inhibitory effect of a test article on transcriptional activity of RORγ was measured by means of the following reporter gene assay.
(§3) cDNA encoding human and mouse RORγ ligand binding domain (LBD) were obtained based on the sequences of human RORγ (Genebank registered number NM_005060.3) and mouse RORγ (Genebank registered number NM_011281.2) (LBD sequence: human RORγ, from Ser253 to Lys518; mouse RORγ, from Ile251 to Lys516).
(§4) The LBD cDNA of human or mouse RORγ was inserted into pFA-CMV vector (Strategene), which expresses GAL4-DNA binding domain fusion protein. The resulting plasmids are hereinafter referred to as GAL4-hRORγ plasmid and GAL4-mRORγ plasmid, respectively.
(§5) GAL4-hRORγ plasmid or GAL4-mRORγ plasmid was transiently co-transfected into Chinese hamster ovary cells (CHO cells) with pG5-Luc (Promega), a reporter plasmid expressing firefly luciferase depending on GAL4.
(§6) TransIT (Registered trademark) CHO transfection reagent (Mirus) was used to co-transfect GAL4-hRORγ plasmid or GAL4-mRORγ plasmid into CHO cells with pG5-Luc plasmid. One day before the assay, CHO cells were suspended in HAM F-12 Nutrient medium containing 10 v/v % fetal bovine serum and seeded at 6×10^6 cells per 175 cm^2 cell culture flask. Fifty four micro litters of TransIT (Registered trademark) CHO reagent was added into a 15 ml tube containing 1.16 mL of HAM F-12 Nutrient medium without fetal bovine serum, and mixed and incubated at room temperature for 10 min. Thirty six micro litters of plasmid solution containing the GAL4-hRORγ plasmid (400 ng), pG5-Luc plasmid (9000 ng) and pcDNA3 plasmid (8600 ng) were added into the tube and mixed gently. In case of mouse assay, a plasmid solution containing the GAL4-mRORγ plasmid (250 ng), pG5-Luc plasmid (9000 ng) and pcDNA3 plasmid (8750 ng) was added, instead. The mixture was incubated at room temperature for 10 min. Nine micro litters of CHO Mojo Reagent were then added into each tube and mixed gently. The mixture was incubated at room temperature for 10 min. The resultant transfection reagent was applied to the cell culture. After incubation at 37° C., 5% CO2 for 4 hours, the plasmid-transfected CHO cells were harvested with a trypsin treatment. The collected cells were resuspended in HAM F-12 Nutrient medium supplemented with 10 v/v % fetal bovine serum and plated into a 384-well-white plate at 8,000 cells/50 μL/well. The plate was incubated at room temperature for 1 hour and then further incubated at 37° C., 5% CO2 for 3 hours. The test articles were dissolved in dimethylsulfoxide (DMSO) to obtain a concentration of 10 mM. The resulting solution was diluted with a medium just before use and added to the cells in the plate to prepare 8 different concentrations of the test article. The final concentration of DMSO was 0.2 v/v %. After the addition of the test articles, the cells were incubated at 37° C., 5% CO2 for 2 days.
(§7) RORγ transcriptional activity was detected as the intracellular luciferase activity using SteadyLite HTS Reporter Gene Assay System (Perkin Elmer). StedyLite Reagent was diluted five-fold into a solution containing Extension reagent (10 mM Tricine, 0.2% w/v BSA, 0.02% v/v Tween-20) to obtain the luciferase substrate solution. After the measurement of the cell viability using Resazurin, the culture media in the plate were removed, and then the luciferase substrate solution was added into each well. After the incubation at room temperature for 10 minutes, luminescence of each well was measured by a microplate reader. The luciferase activity derived from the luminescence count in the vehicle-control well treated with 0.2% DMSO alone was defined as 100%, and the luciferase activity in the test article was calculated as a percentage (%-of-control) based on the value of the vehicle-control. EC50 value of test article was calculated by curve fitting with GraphPad Prism. […]

human RORγ = target: T2, human RORγ (Homo sapiens, UniProt P51449); assay: In vitro assay of inhibitory effect against RORγ transcriptional activity (GAL4-hRORγ LBD luciferase reporter gene assay in CHO cells); type: cell-based; details: for hRORγ luciferase activity, %-of-control: vehicle-control 0.2% DMSO alone = 100%
T2 construct: human RORγ, from Ser253 to Lys518; expressed in transfected cells; host or cells: CHO cells (Chinese hamster ovary), transient co-transfection with pG5-Luc
T2 sequence (P51449 253-518): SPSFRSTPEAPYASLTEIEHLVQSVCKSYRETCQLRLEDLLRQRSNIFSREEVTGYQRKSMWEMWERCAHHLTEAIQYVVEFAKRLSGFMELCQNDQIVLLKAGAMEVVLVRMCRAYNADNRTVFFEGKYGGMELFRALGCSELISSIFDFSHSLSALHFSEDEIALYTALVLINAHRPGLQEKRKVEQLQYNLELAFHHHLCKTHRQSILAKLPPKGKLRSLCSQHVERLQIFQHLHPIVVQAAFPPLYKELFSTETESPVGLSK
Method: as §1, §2, §3, §4, §5, §6, §7

[1] = GAL4-mRORγ LBD / pG5-Luc in CHO cells, 2 days incubation
[2] = value in parentheses beside the > EC50 bound
[3] = GAL4-hRORγ LBD / pG5-Luc in CHO cells, 2 days incubation
[4] = GAL4-mRORγ LBD luciferase reporter, CHO cells, read-out: LUC EC50 mRORγ
[5] = GAL4-hRORγ LBD luciferase reporter, CHO cells, read-out: LUC EC50 hRORγ
[6] = value in parentheses beside the EC50 bound

| Structure (SMILES) | EC50 (mouse RORγ; [1]) [nM] | EC50 (human RORγ; [3]) [nM] | EC50 (mouse RORγ; [4]) [nM] | EC50 (human RORγ; [5]) [nM] | also measured |
| --- | --- | --- | --- | --- | --- |
| CC(C)(C)CCc1ccc(C2NC(=O)N(CCCC(=O)O)C=C2C(C)(C)C)cc1Cl (single isomer, unassigned) [Example 11] | > 8000 | > 8000 |  |  | mRORγ luciferase activity, %-of-control (mouse RORγ; [2]): (79%); hRORγ luciferase activity, %-of-control (human RORγ; [2]): (87%) |
| COCCC1=CN(c2ccc(C(=O)O)cc2)C(=O)N[C@@]1(C)c1ccc([C@H]2C[C@@H](C(C)C)C2)c(Cl)c1 [Example 318] |  |  | 14 | 17 |  |
| CC(C)C1=CN(CCC(=O)O)C(=O)N[C@@]1(C)c1ccc(CC2CCC(C)(C)CC2)c(Cl)c1 [Example 286] |  |  | 38 | 270 |  |
| CC(C)CCOc1c(F)cc([C@]2(C)NC(=O)N(c3ccc(C(=O)O)cc3)C=C2C(C)C)cc1Cl [Example 192] |  |  | 11 | 17 |  |
| COCC(C)C1=CN(c2ccc(C(=O)O)cc2)C(=O)N[C@@]1(C)c1ccc(CCC(C)(C)C)c(Cl)c1 (single isomer, unassigned) [Example 308] |  |  | 25 | 32 |  |
| CC(C)C1=CN(CCCCC(=O)O)C(=O)N[C@@]1(C)c1ccc(CCC(C)(C)C)c(Cl)c1 [Example 48] | 16 | 12 |  |  |  |
| CC(C)C1=CN([C@H]2C[C@H](C(=O)O)C2)C(=O)NC1(C)c1ccc(OCC(C)(C)C)c(Cl)c1 (mixture of isomers) [Example 17] | 153 | 206 |  |  |  |
| CC(C)C1=CN(CCc2ccccc2C(=O)O)C(=O)N[C@]1(C)c1ccc(CCC(C)(C)C)c(Cl)c1 [Example 82] | 790 | 980 |  |  |  |
| CC(C)C1=CN(C[C@H]2C[C@H](C(=O)O)C2)C(=O)N[C@@]1(C)c1ccc(CCC(C)(C)C)c(Cl)c1 [Example 154, 3-{(S)-4-[3-chloro-4-(3,3-dimethyl-butyl)-phenyl]-5-isopropyl-4-methyl-2-oxo-3,4-dihydro-2H-pyrimidin-1-ylmethyl}-cyclobutanecarboxylic acid] | 14 | 10 |  |  |  |
| CC(C)(C)COc1ccc(C2NC(=O)N(CCCC(=O)O)C=C2C(C)(C)C)cc1Cl (racemic) [Example 1] | 60 | 88 |  |  |  |
| CC(C)CCOc1ccc([C@]2(C)NC(=O)N(c3ccc(C(=O)O)cc3)C=C2C2CC(F)(F)C2)cc1Cl [Example 348] |  |  | 39 | 46 |  |
| CC(C)(C)CCc1ccc([C@]2(C)NC(=O)N([C@H]3C[C@H](C(=O)O)C3)C=C2C2CC(F)(F)C2)cc1Cl [Example 96] | 26 | 33 |  |  |  |
| CC(C)C1=CN(CC(C)C(=O)O)C(=O)N[C@@]1(C)c1ccc(CCC(C)(C)C)c(Cl)c1 (single isomer, unassigned) [Example 299] |  |  | 16 | 11 |  |
| COCCN1C=C(C(C)(C)CCC(=O)O)C(C)(c2ccc(CCC(C)(C)C)c(Cl)c2)NC1=O (single isomer, unassigned) [Example 160] | 40 | 15 |  |  |  |
| CC(C)C1=CN(CCC(=O)O)C(=O)N[C@@]1(C)c1ccc(CCC(C)(C)C)c(F)c1 [Example 176] | 13 | 22 |  |  |  |
| CC(C)C1=CN(CCCC(C)(C)C(=O)O)C(=O)N[C@@]1(C)c1ccc(CCC(C)(C)C)c(Cl)c1 [Example 75] | 316 | 296 |  |  |  |

| Structure (SMILES) | EC50 (mouse RORγ; [1]) [nM] | EC50 (human RORγ; [3]) [nM] | EC50 (mouse RORγ; [4]) [nM] | EC50 (human RORγ; [5]) [nM] | also measured |
| --- | --- | --- | --- | --- | --- |
| CC(C)C1=CN(C2(CC(=O)O)CC2)C(=O)N[C@@]1(C)c1ccc(CCC(C)(C)C)c(Cl)c1 [Example 228] |  |  | 32 | 32 |  |
| CC(C)(C)COc1ccc(C2NC(=O)NC=C2C(C)(C)CCC(=O)O)cc1Cl (racemic) [Example 7] | 110 | 152 |  |  |  |
| CC(C)C1=CN(Cc2ccc(C(=O)O)cc2)C(=O)N[C@@]1(C)c1ccc(CCC(C)(C)C)c(Cl)c1 [Example 204] |  |  | 17 | 14 |  |
| CC(C)C1=CN(CCC(=O)O)C(=O)N[C@@]1(C)c1ccc(CCC2CCC2)c(Cl)c1 [Example 122] | 15 | 28 |  |  |  |
| CC(C)C1=CN(C2CC3(CC(C(=O)O)C3)C2)C(=O)N[C@@]1(C)c1ccc(CCC(C)(C)C)c(Cl)c1 (single isomer, unassigned) [Example 233] |  |  | 72 | 69 |  |
| CCC1=CN(CCCC(=O)O)C(=O)N[C@]1(C)c1ccc(CCC(C)(C)C)c(Cl)c1 [Example 68] | 1760 | 1240 |  |  |  |
| CC(C)C1=CN(CCOCC(=O)O)C(=O)NC1(C)c1ccc(CCC(C)(C)C)c(Cl)c1 (single isomer, unassigned) [Example 40] | 198 | 152 |  |  |  |
| CC(C)C1=CN(CCC(=O)O)C(=O)N[C@@]1(C)c1ccc(CCCC(F)(F)F)c(Cl)c1 [Example 129] | < 32 | 47 |  |  |  |
| CC(C)[C@H]1C[C@@H](c2ccc([C@]3(C)NC(=O)N([C@H]4C[C@H](C(=O)O)C4)C=C3C3CC(F)(F)C3)cc2Cl)C1 [Example 329] |  |  | 50 | 74 |  |
| CC(C)CCC1=CN(CCCC(=O)O)C(=O)N[C@@]1(C)c1ccc(CCC(C)(C)C)c(Cl)c1 [Example 44] | 90 | 51 |  |  |  |
| CC(C)C1=CN(CCC(=O)O)C(=O)N[C@]1(C)c1ccc(CCC2CCCCC2)c(Cl)c1 [Example 138] | > 8000 | > 8000 |  |  | mRORγ luciferase activity, %-of-control (mouse RORγ; [2]): (96%); hRORγ luciferase activity, %-of-control (human RORγ; [2]): (85%) |
| CC(C)CC[S+]([O-])c1ccc([C@]2(C)NC(=O)N(CCC(=O)O)C=C2C(C)C)cc1Cl (mixture of isomers) [Example 217] |  |  | > 20000 | > 20000 | mRORγ luciferase activity, %-of-control (mouse RORγ; [6]): (77%); hRORγ luciferase activity, %-of-control (human RORγ; [6]): (90%) |
| COc1cc(N2C=C(C(C)C)[C@](C)(c3ccc(CCC(C)(C)C)c(Cl)c3)NC2=O)ccc1C(=O)O [Example 226, 4-{(S)-4-[3-Chloro-4-(3,3-dimethyl-butyl)-phenyl]-5-isopropyl-4-methyl-2-oxo-3,4-dihydro-2H-pyrimidin-1-yl}-2-methoxy-benzoic Acid] |  |  | 20 | 17 |  |
| CC(C)C1=CN(CCC2(C(=O)O)CC2)C(=O)N[C@]1(C)c1ccc(CCC(C)(C)C)c(Cl)c1 [Example 71] | 758 | 505 |  |  |  |
| CC1=CN(CCCC(=O)O)C(=O)N[C@@]1(C)c1ccc(CCC(C)(C)C)c(Cl)c1 [Example 61] | 46 | 143 |  |  |  |
